The target in this assay is T1, Foxo1 (Mus musculus, UniProt Q9R1E0).
T1 construct: full-length
In words: competition of free Pro-Hyp with (Pro-Hyp-Gly)5-linked magnetic beads, Western blot. Format: binding. As to conditions: free Pro-Hyp 0.1 or 10 mM; pH 7.8, 150 mM KCl, 4 °C overnight; cell extract. For orientation: Immunoblotting shows a protein as a band on a membrane.

SMILES strings stand for the structures. Square brackets hold non-standard residues; d marks the D form. Peptide text beside a SMILES is read from it. Hyp = O=C(O)[C@@H]1C[C@@H](O)CN1

T1 sequence (Q9R1E0 whole entry): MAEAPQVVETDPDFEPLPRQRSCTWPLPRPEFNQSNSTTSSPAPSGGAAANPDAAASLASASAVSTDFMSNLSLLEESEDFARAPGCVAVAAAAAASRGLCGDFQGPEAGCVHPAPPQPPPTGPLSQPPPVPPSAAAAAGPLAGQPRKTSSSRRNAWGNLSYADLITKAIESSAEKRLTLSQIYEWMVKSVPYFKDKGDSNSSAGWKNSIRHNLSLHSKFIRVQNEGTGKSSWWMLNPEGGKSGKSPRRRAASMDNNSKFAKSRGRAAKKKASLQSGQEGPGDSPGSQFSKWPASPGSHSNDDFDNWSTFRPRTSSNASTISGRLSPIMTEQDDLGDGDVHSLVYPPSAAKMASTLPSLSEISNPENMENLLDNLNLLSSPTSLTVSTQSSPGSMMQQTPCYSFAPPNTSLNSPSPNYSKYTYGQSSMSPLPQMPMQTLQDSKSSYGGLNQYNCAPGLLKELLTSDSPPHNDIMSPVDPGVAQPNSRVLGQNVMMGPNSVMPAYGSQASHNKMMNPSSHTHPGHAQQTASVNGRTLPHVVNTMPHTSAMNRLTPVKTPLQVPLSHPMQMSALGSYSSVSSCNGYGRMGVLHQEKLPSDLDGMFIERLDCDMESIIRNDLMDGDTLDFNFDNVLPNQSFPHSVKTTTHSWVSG

Take `O=C(O)[C@@H]1C[C@@H](O)CN1C(=O)[C@@H]1CCCN1` [Pro-Hyp] (H-Pro-[Hyp]-OH): the “competition of free Pro-Hyp with (Pro-Hyp-Gly)5-linked magnetic beads, Western b” value is given as “These data suggest that Pro-Hyp binds to Foxo1”.

These data come from paper PMC8655505, “Stimulation of the Runx2 P1 promoter by collagen-derived dipeptide prolyl-hydroxyproline bound to Foxg1 and Foxo1 in osteoblasts” (Bioscience Reports, 2021).
